The record followed here is ChEMBL document CHEMBL5465560, “Selectivity Literature for EUbOPEN Chemogenomic Library” (2024).

For test [1], the target named is Mitogen-activated protein kinase 9 (Homo sapiens, UniProt P45984). The experiment in a line: Selectivity interaction (Kinase panel (DSF assay)) EUB0001558a MAPK9.
Test [2] has as its target T1, Dual specificity mitogen-activated protein kinase kinase 3 (Homo sapiens) (UniProt P46734).
T1 sequence (whole entry): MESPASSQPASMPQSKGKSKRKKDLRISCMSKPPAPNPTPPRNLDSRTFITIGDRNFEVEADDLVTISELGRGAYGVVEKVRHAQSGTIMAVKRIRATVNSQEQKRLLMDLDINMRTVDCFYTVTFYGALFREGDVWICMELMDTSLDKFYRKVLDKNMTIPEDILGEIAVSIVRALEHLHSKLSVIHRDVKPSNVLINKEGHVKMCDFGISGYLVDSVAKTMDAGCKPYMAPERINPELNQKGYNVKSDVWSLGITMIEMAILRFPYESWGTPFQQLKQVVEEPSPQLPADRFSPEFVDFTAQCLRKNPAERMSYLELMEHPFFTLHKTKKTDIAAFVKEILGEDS
The experiment in a line: Selectivity interaction (Ambit KINOMEscan and KiNATiv profiling in Jurkat cells) EUB0000090b MAP2K3. It is filed as cell-based. The note with it: at 1 µM.

The target of test [3] is T2, Mitogen-activated protein kinase 15 (Homo sapiens) (UniProt Q8TD08).
T2 sequence (whole entry): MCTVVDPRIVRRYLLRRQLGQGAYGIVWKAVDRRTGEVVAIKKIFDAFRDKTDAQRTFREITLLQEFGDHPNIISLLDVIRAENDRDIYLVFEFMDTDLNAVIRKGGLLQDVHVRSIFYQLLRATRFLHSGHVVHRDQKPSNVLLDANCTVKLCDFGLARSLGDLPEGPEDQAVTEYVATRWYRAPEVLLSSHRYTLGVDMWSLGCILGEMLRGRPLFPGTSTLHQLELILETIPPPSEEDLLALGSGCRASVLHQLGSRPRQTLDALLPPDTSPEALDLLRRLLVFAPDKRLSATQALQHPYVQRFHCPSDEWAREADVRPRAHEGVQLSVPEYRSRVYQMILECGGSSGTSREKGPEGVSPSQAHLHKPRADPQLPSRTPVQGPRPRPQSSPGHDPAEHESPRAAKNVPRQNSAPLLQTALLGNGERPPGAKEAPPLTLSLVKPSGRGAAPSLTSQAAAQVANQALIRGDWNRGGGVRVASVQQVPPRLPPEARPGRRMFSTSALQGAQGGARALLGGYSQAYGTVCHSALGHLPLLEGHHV
The settings on record: at 10 µM.

Test [4] addresses Serine/threonine-protein kinase VRK2 (Homo sapiens) (UniProt Q86Y07). The experiment in a line: Selectivity interaction (LanthaScreen Eu Kinase Binding Assay) EUB0001632a VRK2. The note with it: at 10 µM. On the technique in general: TR-FRET usually uses a lanthanide donor and a delayed reading to cut background.
Test [5] deals with T3, Ephrin type-B receptor 4 (Homo sapiens) (UniProt P54760).
T3 sequence (whole entry): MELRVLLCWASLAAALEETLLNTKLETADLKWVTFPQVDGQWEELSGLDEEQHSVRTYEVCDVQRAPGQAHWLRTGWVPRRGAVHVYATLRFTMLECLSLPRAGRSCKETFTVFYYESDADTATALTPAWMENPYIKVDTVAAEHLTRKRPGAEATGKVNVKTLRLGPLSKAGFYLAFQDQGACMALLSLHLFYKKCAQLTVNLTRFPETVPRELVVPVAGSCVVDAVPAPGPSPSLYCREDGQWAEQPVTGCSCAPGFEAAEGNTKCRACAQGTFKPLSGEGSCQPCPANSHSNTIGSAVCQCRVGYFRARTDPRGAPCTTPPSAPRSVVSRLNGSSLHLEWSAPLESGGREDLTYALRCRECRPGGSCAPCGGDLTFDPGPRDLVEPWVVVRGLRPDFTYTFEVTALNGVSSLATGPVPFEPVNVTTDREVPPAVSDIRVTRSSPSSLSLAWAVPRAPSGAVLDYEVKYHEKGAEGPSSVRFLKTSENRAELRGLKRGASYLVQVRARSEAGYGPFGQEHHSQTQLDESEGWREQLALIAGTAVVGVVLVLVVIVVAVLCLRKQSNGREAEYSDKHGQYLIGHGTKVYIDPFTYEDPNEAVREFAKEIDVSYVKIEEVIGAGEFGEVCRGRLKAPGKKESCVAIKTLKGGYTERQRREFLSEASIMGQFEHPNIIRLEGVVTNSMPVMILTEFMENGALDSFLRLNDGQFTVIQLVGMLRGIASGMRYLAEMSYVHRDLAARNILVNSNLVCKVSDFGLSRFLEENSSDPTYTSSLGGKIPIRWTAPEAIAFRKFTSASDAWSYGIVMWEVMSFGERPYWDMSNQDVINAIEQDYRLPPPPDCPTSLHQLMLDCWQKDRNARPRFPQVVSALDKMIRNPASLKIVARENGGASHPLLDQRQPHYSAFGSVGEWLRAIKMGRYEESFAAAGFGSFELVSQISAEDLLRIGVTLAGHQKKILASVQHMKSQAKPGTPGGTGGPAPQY
The experiment in a line: Selectivity interaction (KinomeScan (DiscoverX)) EUB0000607a EPHB4. The note with it: at 10 µM.

For test [6], the target named is 5'-AMP-activated protein kinase catalytic subunit alpha-1 (Homo sapiens, UniProt Q13131). The experiment in a line: Selectivity interaction (ActivX KiNativ screen (kinase selectivity in THP-1 cell lysates)) EUB0000639a PRKAA1. Format: subcellular. The note with it: lysate, at 0.01 µM.
For test [7], the target named is Tyrosine-protein kinase JAK1 (Homo sapiens, UniProt P23458). In words: Selectivity interaction (KinomeScan (DiscoverX)) EUB0000229b JAK1. The note with it: at 10 µM.
In test [8] the target is T4, Tyrosine-protein kinase Tec (Homo sapiens) (UniProt P42680).
T4 sequence (whole entry): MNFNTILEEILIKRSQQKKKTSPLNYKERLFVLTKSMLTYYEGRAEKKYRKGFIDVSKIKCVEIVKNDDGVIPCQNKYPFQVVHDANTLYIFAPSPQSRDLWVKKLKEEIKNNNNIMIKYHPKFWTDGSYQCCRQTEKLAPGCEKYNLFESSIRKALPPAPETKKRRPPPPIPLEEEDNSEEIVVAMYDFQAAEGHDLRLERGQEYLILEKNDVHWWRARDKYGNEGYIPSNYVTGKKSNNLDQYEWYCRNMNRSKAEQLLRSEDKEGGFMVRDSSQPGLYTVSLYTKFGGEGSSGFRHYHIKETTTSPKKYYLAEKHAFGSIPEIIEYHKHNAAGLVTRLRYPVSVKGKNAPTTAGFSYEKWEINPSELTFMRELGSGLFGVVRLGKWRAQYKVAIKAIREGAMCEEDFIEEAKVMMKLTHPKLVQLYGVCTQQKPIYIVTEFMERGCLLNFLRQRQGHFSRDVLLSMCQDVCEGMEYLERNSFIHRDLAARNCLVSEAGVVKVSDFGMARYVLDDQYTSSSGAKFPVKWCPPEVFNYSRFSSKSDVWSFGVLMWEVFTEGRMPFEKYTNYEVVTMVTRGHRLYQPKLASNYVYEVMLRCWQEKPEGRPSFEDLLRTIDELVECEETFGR
The experiment in a line: Selectivity interaction (KinomeScan (DiscoverX)) EUB0001619a TEC. The note with it: at 1 µM.

Test [9] deals with Serine/threonine-protein kinase WNK4 (Homo sapiens) (UniProt Q96J92). In words: Selectivity interaction (ActivX KiNativ screen (ex vivo kinase selectivity in human PBMCs)) EUB0001619a WNK4. The note with it: PBMC, at 1 µM. It is filed as cell-based.
Chain of Serine/threonine-protein kinase WNK4 (Homo sapiens) (Q96J92 whole entry): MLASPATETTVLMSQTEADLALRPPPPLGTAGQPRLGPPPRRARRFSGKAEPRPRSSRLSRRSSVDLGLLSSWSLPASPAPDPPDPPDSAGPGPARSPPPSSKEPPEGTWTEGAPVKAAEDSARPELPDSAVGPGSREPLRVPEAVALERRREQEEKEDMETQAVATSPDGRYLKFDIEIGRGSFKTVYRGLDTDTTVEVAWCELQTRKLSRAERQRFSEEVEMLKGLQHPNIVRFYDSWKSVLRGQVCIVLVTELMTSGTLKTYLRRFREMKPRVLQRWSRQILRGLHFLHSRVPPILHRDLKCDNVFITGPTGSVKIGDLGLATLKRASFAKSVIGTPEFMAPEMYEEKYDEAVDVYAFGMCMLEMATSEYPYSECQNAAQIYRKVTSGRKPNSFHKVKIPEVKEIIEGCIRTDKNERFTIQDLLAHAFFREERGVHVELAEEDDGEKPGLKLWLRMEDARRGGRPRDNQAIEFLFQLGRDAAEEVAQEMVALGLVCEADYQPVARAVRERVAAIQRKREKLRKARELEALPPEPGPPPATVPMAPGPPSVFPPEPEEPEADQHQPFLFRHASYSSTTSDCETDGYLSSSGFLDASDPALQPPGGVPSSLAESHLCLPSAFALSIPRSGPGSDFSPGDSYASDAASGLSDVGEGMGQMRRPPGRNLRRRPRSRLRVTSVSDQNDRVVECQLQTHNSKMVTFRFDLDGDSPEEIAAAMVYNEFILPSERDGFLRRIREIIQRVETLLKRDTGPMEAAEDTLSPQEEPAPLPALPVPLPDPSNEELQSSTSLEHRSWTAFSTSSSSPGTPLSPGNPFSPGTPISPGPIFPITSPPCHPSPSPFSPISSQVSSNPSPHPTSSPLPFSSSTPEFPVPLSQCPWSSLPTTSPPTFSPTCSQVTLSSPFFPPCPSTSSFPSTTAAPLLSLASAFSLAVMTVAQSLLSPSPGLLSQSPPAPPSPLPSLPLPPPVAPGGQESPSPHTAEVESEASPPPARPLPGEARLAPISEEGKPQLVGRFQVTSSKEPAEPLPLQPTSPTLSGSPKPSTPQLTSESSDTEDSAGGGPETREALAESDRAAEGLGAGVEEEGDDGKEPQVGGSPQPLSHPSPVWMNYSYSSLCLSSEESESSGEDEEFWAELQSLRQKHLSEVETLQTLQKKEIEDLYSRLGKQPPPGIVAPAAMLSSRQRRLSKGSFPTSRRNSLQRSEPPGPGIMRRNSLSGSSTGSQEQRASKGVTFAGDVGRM

Chain of Serine/threonine-protein kinase VRK2 (Homo sapiens) (Q86Y07 whole entry): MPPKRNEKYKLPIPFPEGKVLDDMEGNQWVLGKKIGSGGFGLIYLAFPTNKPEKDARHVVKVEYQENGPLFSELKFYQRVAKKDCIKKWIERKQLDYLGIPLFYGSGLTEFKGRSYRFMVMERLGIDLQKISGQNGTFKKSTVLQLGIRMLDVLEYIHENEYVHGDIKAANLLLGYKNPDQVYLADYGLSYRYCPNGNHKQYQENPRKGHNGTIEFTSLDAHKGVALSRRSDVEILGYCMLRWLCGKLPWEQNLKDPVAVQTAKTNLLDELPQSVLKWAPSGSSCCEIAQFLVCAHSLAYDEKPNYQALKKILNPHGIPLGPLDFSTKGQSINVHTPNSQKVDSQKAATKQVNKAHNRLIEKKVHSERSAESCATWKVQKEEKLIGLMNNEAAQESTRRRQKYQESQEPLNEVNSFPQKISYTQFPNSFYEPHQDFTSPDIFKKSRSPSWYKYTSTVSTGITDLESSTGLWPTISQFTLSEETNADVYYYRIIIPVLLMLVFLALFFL
Chain of Tyrosine-protein kinase JAK1 (P23458 whole entry): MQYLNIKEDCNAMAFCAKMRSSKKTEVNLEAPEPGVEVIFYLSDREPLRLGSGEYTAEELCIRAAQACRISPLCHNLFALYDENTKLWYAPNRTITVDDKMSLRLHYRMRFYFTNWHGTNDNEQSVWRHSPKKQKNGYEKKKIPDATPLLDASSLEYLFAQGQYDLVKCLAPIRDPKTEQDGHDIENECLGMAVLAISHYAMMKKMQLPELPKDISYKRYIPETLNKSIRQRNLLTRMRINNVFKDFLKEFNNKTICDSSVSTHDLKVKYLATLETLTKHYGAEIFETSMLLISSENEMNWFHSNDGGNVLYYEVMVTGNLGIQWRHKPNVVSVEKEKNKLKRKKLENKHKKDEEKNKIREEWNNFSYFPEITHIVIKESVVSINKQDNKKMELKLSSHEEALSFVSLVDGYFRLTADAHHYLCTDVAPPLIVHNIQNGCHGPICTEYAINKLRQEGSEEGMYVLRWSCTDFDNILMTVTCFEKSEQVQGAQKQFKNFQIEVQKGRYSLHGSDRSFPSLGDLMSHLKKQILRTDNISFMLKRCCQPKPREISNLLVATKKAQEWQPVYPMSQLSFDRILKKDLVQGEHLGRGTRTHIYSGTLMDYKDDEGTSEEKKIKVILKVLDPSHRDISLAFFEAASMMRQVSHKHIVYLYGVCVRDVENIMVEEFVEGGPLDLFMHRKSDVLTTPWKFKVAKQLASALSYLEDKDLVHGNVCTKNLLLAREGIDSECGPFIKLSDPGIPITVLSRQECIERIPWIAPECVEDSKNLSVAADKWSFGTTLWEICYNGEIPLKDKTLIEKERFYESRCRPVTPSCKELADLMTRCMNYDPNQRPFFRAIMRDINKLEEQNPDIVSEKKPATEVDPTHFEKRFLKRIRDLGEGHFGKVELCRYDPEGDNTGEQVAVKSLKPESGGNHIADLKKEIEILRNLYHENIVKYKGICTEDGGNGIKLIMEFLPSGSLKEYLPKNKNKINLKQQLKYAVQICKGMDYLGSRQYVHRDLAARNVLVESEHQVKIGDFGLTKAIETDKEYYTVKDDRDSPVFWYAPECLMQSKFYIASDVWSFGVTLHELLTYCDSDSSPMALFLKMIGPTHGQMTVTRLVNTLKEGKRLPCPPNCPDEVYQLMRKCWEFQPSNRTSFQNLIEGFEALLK
Chain of Mitogen-activated protein kinase 9 (P45984 whole entry, looked up): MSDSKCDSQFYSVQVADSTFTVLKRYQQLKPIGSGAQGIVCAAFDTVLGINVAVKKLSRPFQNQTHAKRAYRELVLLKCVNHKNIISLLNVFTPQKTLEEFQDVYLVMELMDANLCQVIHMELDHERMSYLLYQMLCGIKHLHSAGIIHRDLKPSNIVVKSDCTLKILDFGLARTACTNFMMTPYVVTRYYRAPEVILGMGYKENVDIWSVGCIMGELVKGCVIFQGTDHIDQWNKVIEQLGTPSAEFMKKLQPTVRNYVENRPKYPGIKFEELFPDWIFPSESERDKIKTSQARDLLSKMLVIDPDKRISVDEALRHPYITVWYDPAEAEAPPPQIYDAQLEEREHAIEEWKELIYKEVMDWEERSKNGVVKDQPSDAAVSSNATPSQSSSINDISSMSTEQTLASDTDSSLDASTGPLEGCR
Chain of 5'-AMP-activated protein kinase catalytic subunit alpha-1 (Q13131 whole entry, looked up): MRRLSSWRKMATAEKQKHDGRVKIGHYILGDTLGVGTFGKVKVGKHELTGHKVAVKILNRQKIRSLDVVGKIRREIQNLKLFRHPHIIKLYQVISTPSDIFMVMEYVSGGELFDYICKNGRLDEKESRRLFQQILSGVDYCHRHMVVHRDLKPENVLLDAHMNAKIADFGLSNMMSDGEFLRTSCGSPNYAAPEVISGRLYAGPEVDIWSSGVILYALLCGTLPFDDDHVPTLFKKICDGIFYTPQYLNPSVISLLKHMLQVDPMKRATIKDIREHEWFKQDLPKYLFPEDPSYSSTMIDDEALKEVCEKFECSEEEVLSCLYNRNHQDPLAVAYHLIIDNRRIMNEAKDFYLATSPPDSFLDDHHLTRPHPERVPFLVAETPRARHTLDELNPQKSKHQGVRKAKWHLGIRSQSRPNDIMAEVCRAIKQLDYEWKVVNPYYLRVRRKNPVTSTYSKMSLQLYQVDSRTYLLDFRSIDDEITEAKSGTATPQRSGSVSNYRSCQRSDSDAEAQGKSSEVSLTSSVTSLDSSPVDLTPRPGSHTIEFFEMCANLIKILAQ

`CC(C)(O)[C@H](F)CN1Cc2cc(NC(=O)c3cnn4cccnc34)c(N3CCOCC3)cc2C1=O` registered a dTM in test [1] of 1.6 K.
`CN(C)C/C=C/C(=O)Nc1ccc(C(=O)N2CCCC(Nc3ncc(Cl)c(-c4c[nH]c5ccccc45)n3)C2)cc1` (centres undefined) returned a % of control in test [2] of 51%.
In test [3], `CCN(CC)CCCCNc1ncc2cc(-c3cc(OC)cc(OC)c3)c(NC(=O)NC(C)(C)C)nc2n1` had a % of control of 100%.
Turning to `Cn1cc(-n2cnc3c(NCc4nc5cc(Cl)c(Cl)cc5[nH]4)nc(N4CCOCC4)nc32)cn1`, the % of inhibition in test [4] was -14%.
The compound `CNC(=O)Nc1ccc(-c2nc(N3CC4CCC(C3)O4)c3cnn(C4CCC5(CC4)OCCO5)c3n2)cc1` showed a % of control in test [5] of 100%.
With `CC[C@@H]1[C@H](F)C(=O)N[C@@H]1COc1nccc2cc(C(N)=O)c(OC)cc12` [ZIMLOVISERTIB], the % of inhibition in test [6] amounted to 14.5%.
Compound `COc1cc(N(C)c2ccnc3ccc(C(F)(F)F)cc23)cc(OC)c1OC` registered a % binding in test [7] of 70%.
`N#Cc1cccc(-c2c[nH]c3ncnc(N4CCOCC4)c23)c1`: in test [8], the % of control was found to be 100%. The % of inhibition in test [9] is -1%.
